Experimental data taken from patent US20230126893A1, “[(1,4,5-TRISUBSTITUTED-1H-PYRAZOL-3-YL)SULFANYL]ACETIC ACID DERIVATIVES, SALTS THEREOF, AND USE THEREOF AS ACTIVE HERBICIDAL INGREDIENTS” (BAYER AKTIENGESELLSCHAFT, priority 2020, published 2023).

Tested on: Digitaria sanguinalis
Experiment: Pre-emergence herbicidal effect against DIGSA
Assay type: in vivo
Conditions: 1280 g/ha, visual score after 3 weeks, 100% = plants have died, 0% = like control plants
Outline: (§1)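 Percent herbicidal activity (100% = dead, 0% = as control) was rated by eye 3 weeks post-application in greenhouse pots of sandy loam, with treatment sprayed onto the covering soil before emergence.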

Compound	Pre-emergence action against DIGSA [%]
CCOC(=O)C[S+]([O-])c1nn(-c2ccccc2F)c(-c2cncc(Cl)c2)c1Br (stereo not drawn) [II-013]	100

Tested on: Tripleurospermum inodorum
Experiment: Pre-emergence herbicidal effect against MATIN
Assay type: in vivo
Conditions: 1280 g/ha, visual score after 3 weeks, 100% = plants have died, 0% = like control plants
Outline: as §1

Compound	Pre-emergence action against MATIN [%]
CCOC(=O)C[S+]([O-])c1nn(-c2ccccc2F)c(-c2cncc(Cl)c2)c1Br (stereo not drawn) [II-013]	100

Tested on: Bassia scoparia
Experiment: Pre-emergence herbicidal effect against KCHSC
Assay type: in vivo
Conditions: 1280 g/ha, visual score after 3 weeks, 100% = plants have died, 0% = like control plants
Excerpt: (§2) 1. Pre-emergence herbicidal effect and crop plant compatibility Seeds of monocotyledonous and dicotyledonous weed plants and crop plants are laid out in sandy loam soil in wood-fibre pots and covered with soil. The compounds of the invention, formulated in the form of wettable powders (WP) or as emulsion concentrates (EC), are then applied to the surface of the covering soil as aqueous suspension or emulsion at a water application rate equating to 600 to 800 L/ha with addition of 0.2% wetting agent. After the treatment, the pots are placed in a greenhouse and kept under good growth conditions for the trial plants. The damage to the test plants is scored visually after a test period of 3 weeks by comparison with untreated controls (herbicidal activity in percent (%): 100% activity=the plants have died, 0% activity=like control plants). [table]

Compound	Pre-emergence action against KCHSC [%]
CCOC(=O)C[S+]([O-])c1nn(-c2ccccc2F)c(-c2cncc(Cl)c2)c1Br (stereo not drawn) [II-013]	90

Tested on: Tripleurospermum inodorum
Experiment: Post-emergence herbicidal effect against MATIN
Assay type: in vivo
Conditions: 1280 g/ha, visual assessment about 3 weeks after treatment, 100% = plants have died, 0% = like control plants
Outline: (§3)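 Percent herbicidal effect, judged visually against untreated plants about 3 weeks after treatment, where 100% means dead plants. Treatment was a foliar spray of WP or EC formulations (600 to 800 l/ha water, 0.2% wetting agent) on one-leaf-stage plants raised in sandy loam.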

Compound	Post-emergence action against MATIN [%]
CCOC(=O)C[S+]([O-])c1nn(-c2ccccc2F)c(-c2cncc(Cl)c2)c1Br (stereo not drawn) [II-013]	100

Tested on: Amaranthus retroflexus
Experiment: Post-emergence herbicidal effect against AMARE
Assay type: in vivo
Conditions: 1280 g/ha, visual assessment about 3 weeks after treatment, 100% = plants have died, 0% = like control plants
Method: [table] 2. Post-emergence herbicidal effect and crop plant compatibility Seeds of monocotyledonous and dicotyledonous weed and crop plants are laid out in sandy loam soil in wood-fibre pots, covered with soil and cultivated in a greenhouse under good growth conditions. 2 to 3 weeks after sowing, the test plants are treated at the one-leaf stage. The compounds of the invention, formulated in the form of wettable powders (WP) or as emulsion concentrates (EC), are then sprayed onto the green parts of the plants as aqueous suspension or emulsion at a water application rate equating to 600 to 800 l/ha with addition of 0.2% wetting agent. After the test plants have been left to stand in the greenhouse under optimal growth conditions for about 3 weeks, the action of the preparations is assessed visually in comparison to untreated controls (herbicidal action in percent (%): 100% activity=the plants have died, 0% activity=like control plants).

Compound	Post-emergence action against AMARE [%]
CCOC(=O)C[S+]([O-])c1nn(-c2ccccc2F)c(-c2cncc(Cl)c2)c1Br (stereo not drawn) [II-013]	90

Tested on: Veronica persica
Experiment: Post-emergence herbicidal effect against VERPE
Assay type: in vivo
Conditions: 1280 g/ha, visual assessment about 3 weeks after treatment, 100% = plants have died, 0% = like control plants
Outline: as §3

Compound	Post-emergence action against VERPE [%]
CCOC(=O)C[S+]([O-])c1nn(-c2ccccc2F)c(-c2cncc(Cl)c2)c1Br (stereo not drawn) [II-013]	100

Tested on: Alopecurus myosuroides
Experiment: Pre-emergence herbicidal effect against ALOMY
Assay type: in vivo
Conditions: 1280 g/ha, visual score after 3 weeks, 100% = plants have died, 0% = like control plants
Outline: as §1

Compound	Pre-emergence action against ALOMY [%]
CCOC(=O)C[S+]([O-])c1nn(-c2ccccc2F)c(-c2cncc(Cl)c2)c1Br (stereo not drawn) [II-013]	100

Tested on: Echinochloa crus-galli
Experiment: Pre-emergence herbicidal effect against ECHCG
Assay type: in vivo
Conditions: 1280 g/ha, visual score after 3 weeks, 100% = plants have died, 0% = like control plants
Outline: as §1

Compound	Pre-emergence action against ECHCG [%]
CCOC(=O)C[S+]([O-])c1nn(-c2ccccc2F)c(-c2cncc(Cl)c2)c1Br (stereo not drawn) [II-013]	100

Tested on: Abutylon threophrasti
Experiment: Post-emergence herbicidal effect against ABUTH
Assay type: in vivo
Conditions: 1280 g/ha, visual assessment about 3 weeks after treatment, 100% = plants have died, 0% = like control plants
Outline: as §3

Compound	Post-emergence action against ABUTH [%]
CCOC(=O)C[S+]([O-])c1nn(-c2ccccc2F)c(-c2cncc(Cl)c2)c1Br (stereo not drawn) [II-013]	100

Tested on: Echinochloa crus-galli
Experiment: Post-emergence herbicidal effect against ECHCG
Assay type: in vivo
Conditions: 1280 g/ha, visual score after about 3 weeks, 100% = plants have died, 0% = like control plants
Outline: as §3

Compound	Post-emergence action against ECHCG [%]
CCOC(=O)C[S+]([O-])c1nn(-c2ccccc2F)c(-c2cncc(Cl)c2)c1Br (stereo not drawn) [II-013]	100

Tested on: Setaria viridis
Experiment: Pre-emergence herbicidal effect against SETVI
Assay type: in vivo
Conditions: 1280 g/ha, visual score after 3 weeks, 100% = plants have died, 0% = like control plants
Outline: as §1

Compound	Pre-emergence action against SETVI [%]
CCOC(=O)C[S+]([O-])c1nn(-c2ccccc2F)c(-c2cncc(Cl)c2)c1Br (stereo not drawn) [II-013]	100

Tested on: Veronica persica
Experiment: Pre-emergence herbicidal effect against VERPE
Assay type: in vivo
Conditions: 1280 g/ha, visual score after 3 weeks, 100% = plants have died, 0% = like control plants
Outline: as §1

Compound	Pre-emergence action against VERPE [%]
CCOC(=O)C[S+]([O-])c1nn(-c2ccccc2F)c(-c2cncc(Cl)c2)c1Br (stereo not drawn) [II-013]	100

Tested on: Lolium rigidum
Experiment: Pre-emergence herbicidal effect against LOLRI
Assay type: in vivo
Conditions: 1280 g/ha, visual score after 3 weeks, 100% = plants have died, 0% = like control plants
Outline: as §1

Compound	Pre-emergence action against LOLRI [%]
CCOC(=O)C[S+]([O-])c1nn(-c2ccccc2F)c(-c2cncc(Cl)c2)c1Br (stereo not drawn) [II-013]	100

Tested on: Abutylon threophrasti
Experiment: Pre-emergence herbicidal effect against ABUTH
Assay type: in vivo
Conditions: 1280 g/ha, visual score after 3 weeks, 100% = plants have died, 0% = like control plants
Excerpt: as §2

Compound	Pre-emergence action against ABUTH [%]
CCOC(=O)C[S+]([O-])c1nn(-c2ccccc2F)c(-c2cncc(Cl)c2)c1Br (stereo not drawn) [II-013]	90

Tested on: Poa annua
Experiment: Post-emergence herbicidal effect against POAAN
Assay type: in vivo
Conditions: 1280 g/ha, visual assessment about 3 weeks after treatment, 100% = plants have died, 0% = like control plants
Outline: as §3

Compound	Post-emergence action against POAAN [%]
CCOC(=O)C[S+]([O-])c1nn(-c2ccccc2F)c(-c2cncc(Cl)c2)c1Br (stereo not drawn) [II-013]	100

Tested on: Bassia scoparia
Experiment: Post-emergence herbicidal effect against KCHSC
Assay type: in vivo
Conditions: 1280 g/ha, visual assessment about 3 weeks after treatment, 100% = plants have died, 0% = like control plants
Outline: as §3

Compound	Post-emergence action against KCHSC [%]
CCOC(=O)C[S+]([O-])c1nn(-c2ccccc2F)c(-c2cncc(Cl)c2)c1Br (stereo not drawn) [II-013]	90

Tested on: Stellaria media
Experiment: Pre-emergence herbicidal effect against STEME
Assay type: in vivo
Conditions: 1280 g/ha, visual score after 3 weeks, 100% = plants have died, 0% = like control plants
Outline: as §1

Compound	Pre-emergence action against STEME [%]
CCOC(=O)C[S+]([O-])c1nn(-c2ccccc2F)c(-c2cncc(Cl)c2)c1Br (stereo not drawn) [II-013]	100

Tested on: Amaranthus retroflexus
Experiment: Pre-emergence herbicidal effect against AMARE
Assay type: in vivo
Conditions: 1280 g/ha, visual score after 3 weeks, 100% = plants have died, 0% = like control plants
Outline: as §1

Compound	Pre-emergence action against AMARE [%]
CCOC(=O)C[S+]([O-])c1nn(-c2ccccc2F)c(-c2cncc(Cl)c2)c1Br (stereo not drawn) [II-013]	100

Tested on: Stellaria media
Experiment: Post-emergence herbicidal effect against STEME
Assay type: in vivo
Conditions: 1280 g/ha, visual assessment about 3 weeks after treatment, 100% = plants have died, 0% = like control plants
Outline: as §3

Compound	Post-emergence action against STEME [%]
CCOC(=O)C[S+]([O-])c1nn(-c2ccccc2F)c(-c2cncc(Cl)c2)c1Br (stereo not drawn) [II-013]	100

Tested on: Setaria viridis
Experiment: Post-emergence herbicidal effect against SETVI
Assay type: in vivo
Conditions: 1280 g/ha, visual assessment about 3 weeks after treatment, 100% = plants have died, 0% = like control plants
Outline: as §3

Compound	Post-emergence action against SETVI [%]
CCOC(=O)C[S+]([O-])c1nn(-c2ccccc2F)c(-c2cncc(Cl)c2)c1Br (stereo not drawn) [II-013]	90

Tested on: Poa annua
Experiment: Pre-emergence herbicidal effect against POAAN
Assay type: in vivo
Conditions: 1280 g/ha, visual score after 3 weeks, 100% = plants have died, 0% = like control plants
Outline: as §1

Compound	Pre-emergence action against POAAN [%]
CCOC(=O)C[S+]([O-])c1nn(-c2ccccc2F)c(-c2cncc(Cl)c2)c1Br (stereo not drawn) [II-013]	100
